Literature values, collected in patent publication US11872314B2, “Pharmaceutical compositions” (Shin Nippon Biomedical Laboratories, Ltd., priority 2016, dated 2024).

Settings: at 25° C.

- Water solbility: 0.937 µg/mL
Compound: COc1ccc2c(c1)c(CC(=O)O)c(C)n2C(=O)c1ccc(Cl)cc1 [Indomethacin, indomethacin]
